Reference: paper PMC6150197, “NeoBOMB1, a GRPR-Antagonist for Breast Cancer Theragnostics: First Results of a Preclinical Study with [^67Ga]NeoBOMB1 in T-47D Cells and Tumor-Bearing Mice” (Molecules : A Journal of Synthetic Chemistry and Natural …, 2017)
Like-named read-outs stand apart in the source and are kept apart here. Square brackets hold non-standard residues; d marks the D form. * marks the point of attachment. DOTA = O=C(O)CN1CCN(CC(=O)O)CCN(CC(=O)*)CCN(CC(=O)O)CC1

Target: T1, GRPR (Homo sapiens, UniProt P30550)
T1 construct: Human ductal breast carcinoma T-47D cells endogenously expressing the GRPR were used in all biological assays; endogenous in cells; host or cells: T-47D human ductal breast carcinoma cells (live, adherent, 4 °C)
Test: Competition binding against [^125I-Tyr^4]BBN in T-47D cells
Description: Methionine was added to the purified radioligand solution to prevent re-oxidation of Met^14 to the corresponding sulfoxide and the resulting stock solution in 0.1% BSA-PBS was kept at −20 °C; aliquots thereof were used for competition binding assays (specific activity of 2.2 Ci/μmol). Samples were measured for radioactivity in an automatic well-type gamma counter (NaI(Tl)] crystal, Canberra Packard Auto-Gamma 5000 series instrument, Schwadorf, Austria).
Human ductal breast carcinoma T-47D cells endogenously expressing the GRPR were used in all biological assays [14, 22, 23]. Cells were cultured in RPMI supplemented with 10% FBS, 100 U/mL penicillin and 100 µg/mL streptomycin, and kept in a controlled humidified atmosphere containing 5% CO2 at 37 °C. Passages were performed weekly using a trypsin/EDTA (0.05%/0.02% w/v) solution.
Cells were seeded in 12-well plates 24 h in advance (0.6 × 10^6 cells per well). On the day of the experiment, cells were placed on ice and washed with chilled washing medium (2 × 1 mL, RPMI supplemented with 1% heat inactivated FBS). […] Lysates were collected, combined and counted for their radioactivity content in a γ-counter. The IC50 values were calculated adopting nonlinear regression according to a one-site model applying the PRISM^TM 2 program (GraphPad Software, San Diego, CA, USA). […]

T1 sequence (P30550 whole entry): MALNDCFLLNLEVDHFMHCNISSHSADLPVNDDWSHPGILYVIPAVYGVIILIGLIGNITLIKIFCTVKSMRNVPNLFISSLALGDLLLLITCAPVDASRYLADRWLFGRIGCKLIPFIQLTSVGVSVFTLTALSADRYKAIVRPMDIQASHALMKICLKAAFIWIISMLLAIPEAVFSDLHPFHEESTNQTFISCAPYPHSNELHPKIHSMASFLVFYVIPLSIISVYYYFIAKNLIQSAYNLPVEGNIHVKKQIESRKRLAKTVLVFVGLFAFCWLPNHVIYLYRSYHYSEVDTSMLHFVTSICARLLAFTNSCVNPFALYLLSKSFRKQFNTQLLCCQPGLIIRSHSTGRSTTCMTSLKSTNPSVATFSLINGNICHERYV

| Compound | IC50 [nM] | IC50 (live T-47D cells, 3 h incubation at 4 °C, one-site model, mean ± sd, n = 3 (n = 5 for [Tyr^4]BBN), in triplicate, read-out: IC50, displacement of [^125I-Tyr^4]BBN from GRPR-sites on T-47D cells) [nM] |
| --- | --- | --- |
| CC(C)CC(CC(C)C)NC(=O)[C@H](Cc1cnc[nH]1)NC(=O)CNC(=O)[C@@H](NC(=O)[C@H](C)NC(=O)[C@H](Cc1c[nH]c2ccccc12)NC(=O)[C@H](CCC(N)=O)NC(=O)[C@@H](Cc1ccccc1)NC(=O)COCC(=O)Nc1ccc(CNC(=O)CN2CCN(CC(=O)O)CCN(CC(=O)O)CCN(CC(=O)O)CC2)cc1)C(C)C [NeoBOMB1, DOTA-p-aminomethylaniline-diglycolic acid-DPhe-Gln-Trp-Ala-Val-Gly-His-NH-CH[CH2-CH(CH3)2]2] | 2.2 ± 0.2 | – |
| [^natGa]NeoBOMB1: NeoBOMB1 metalated with ^natGa ({DOTA-p‑aminomethylaniline-diglycolic acid}-[dF]QWAVGH-{2,6‑dimethylheptan‑4‑yl amide}; also: DOTA chelating natGa(III)) | – | 2.5 ± 0.2 |
